Results on 36 molecules are retold here after article PMC10945501, “Development and In Vivo Evaluation of Small-Molecule Ligands for Positron Emission Tomography of Immune Checkpoint Modulation Targeting Programmed Cell Death 1 Ligand 1” (Journal of Medicinal Chemistry, 2024).

By IC50 is commonly meant the concentration that inhibits the measured activity by half. What is called chromatographic logD is a lipophilicity value derived from retention on a column. Broadly, the EC50 is the concentration that produces a half-maximal response.

Data set [1] has as its system PD-L1. Conditions: cited from earlier work.
The target of data set [2] is T1, human PD-L1 (Homo sapiens, UniProt Q9NZQ7).
T1 construct: purchased Cisbio Bioassays SAS, Codolet, France 64PD1PEG
The data set is described as follows: HTRF PD-1/PD-L1 binding assay (cell-free). As to conditions: for IC50: cell-free competitive PD-1/PD-L1 HTRF, mean ± SD, read-out: IC50 (hPD-L1 binding affinity, HTRF); for fold reduction of affinity, pyrrole at R1 vs 1,4-benzodioxanyl analogue: pairs 4c vs 4m, 4e vs 4n, 4f vs 4o, 5c vs 5f. (TR-FRET usually uses a lanthanide donor and a delayed reading to cut background.)

Data set [3] can be described thus: Lipophilicity by HPLC method (μHPLC logD). As to conditions: for μHPLC logD: pH 7.4; for chromatographic logD: pH 7.4, μHPLC logD.
Data set [4] has as its system CHO-hPD-L1 cells. Nature of the data set: MTT cell viability assay. The class given is cell-based, Chinese hamster. Conditions: Cricetulus griseus, 24 h, read-out: EC50 (cell viability, MTT). (Tetrazolium assays rely on reduction of a dye to a coloured formazan, in cell work by metabolically active cells.)
Where [5] appears, read: literature IC50 as stated in the original patent, read-out: Lit. IC50.
The mark [6] stands for this setting: read-out: IC50 (Figure 1, previously reported ligands).

Read-outs that look alike come from different tables or passages of the source.

T1 sequence (Q9NZQ7 19-238 limits assumed): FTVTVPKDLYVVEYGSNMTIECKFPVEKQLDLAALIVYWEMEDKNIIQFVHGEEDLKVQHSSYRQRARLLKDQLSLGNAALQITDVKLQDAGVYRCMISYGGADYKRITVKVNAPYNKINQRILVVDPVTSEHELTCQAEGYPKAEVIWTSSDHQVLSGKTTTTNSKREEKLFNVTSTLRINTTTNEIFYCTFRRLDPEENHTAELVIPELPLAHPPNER

For `CC(=O)NCCNCc1ccc(OCc2cccc(-c3ccccc3)c2C)cc1OCc1cc(C#N)ccc1F` [BMS-1095], in data set [1] (setting [5]), the 50% inhibitory concentration (IC50) was 81.2 nM. Regarding `Cc1c(COc2cc(OCc3cncc(C#N)c3)c(CNC[C@@H](O)CC(=O)O)cc2Cl)cccc1-c1ccc2c(c1)OCCO2` [BMS-1250], the 50% inhibitory concentration (IC50) in data set [1] (setting [5]) was 1.19 nM. Consider `CC(=O)NCCNCc1ccc(OCc2cccc(-c3ccccc3)c2C)cc1OCc1cccc(OC(F)(F)F)c1` [BMS-1082], for which the IC50 in data set [1] (setting [5]) was 828 nM. Regarding `Cc1c(COc2ccc(CN[C@H](CO)C(=O)O)c(OCc3cccc(C#N)c3)c2)cccc1-c1ccccc1` [BMS-1016], in data set [1] (setting [5]), the concentration for half-maximal inhibition (IC50) is 4.55 nM. `Cc1c(COc2cc(OCc3cccc(C#N)c3)c(CN[C@H](CCO)C(=O)O)cc2Cl)cccc1-c1ccc2c(c1)OCCO2` [BMS-1205]: in data set [1] (setting [5]), the half-maximal inhibitory concentration (IC50) is 2.71 nM. Turning to `Cc1c(COc2cc(OCc3cncc(S(C)(=O)=O)c3)c(CO)cc2Cl)cccc1-c1ccc2c(c1)OCCO2` [BMS-3013], in data set [1] (setting [5]), the IC50 is 80 nM. As to `Cc1c(COc2cc(OCc3cncc(C(=O)O)c3)c(CN[C@@H](CCCN)C(=O)O)cc2Cl)cccc1-c1ccc2c(c1)OCCO2` [BMS-2002], the IC50 in data set [1] (setting [5]) is 10 nM. `CC(=O)NCCNCc1ccc(OCc2cccc(-c3ccccc3)c2C)cc1OCc1ccc(C(=O)O)cc1` [BMS-1043]: the half-maximal inhibitory concentration (IC50) in data set [1] (setting [5]) was 239 nM.

`Cc1c(COc2cc(OCc3cccc(C#N)c3)c(CNC(C(=O)O)C(C)(C)O)cc2Cl)cccc1-c1ccc2c(c1)OCCO2` (stereo not shown) [BMS-1210]: the half-inhibitory concentration (IC50) in data set [1] (setting [5]) was 12.7 nM. For `Cc1c(COc2cc(OCc3cccc(C#N)c3)c(CNC(CO)(Cc3ccccc3)C(=O)O)cc2Cl)cccc1-c1ccc2c(c1)OCCO2` (stereo not shown) [BMS-1218], in data set [1] (setting [5]), the concentration for half-maximal inhibition (IC50) is 10.1 nM. In the case of `N#Cc1cc(COc2cc(OCc3cccc(-c4ccc5c(c4)OCCO5)c3Br)c(Cl)cc2CN2CCCC[C@H]2C(=O)O)ccn1` [Example 15], in data set [1] (setting [6]), the half-inhibitory concentration (IC50) is 0.001 to 0.01 nM.

For the molecule `CC(=O)NCCNCc1ccc(OCc2cccc(-c3ccccc3)c2C)cc1OCc1ccc(F)c(C)c1` [BMS-1108], the half-inhibitory concentration (IC50) in data set [1] (setting [5]) was 624 nM.

Turning to `CC(=O)NCCNCc1ccc(OCc2cccc(-c3ccccc3)c2C)cc1OCc1ccccc1[N+](=O)[O-]` [BMS-1057], the IC50 in data set [1] (setting [5]) is 986 nM. As for `Cc1c(COc2cc(OCc3ccnc(C#N)c3)c(CNCCF)cc2Cl)cccc1-c1ccc2c(c1)OCCO2` [Compound 5i, 4-((4-Chloro-5-((3-(2,3-dihydrobenzo[b][1,4]dioxin-6-yl)-2-methylbenzyl)oxy)-2-(((2-fluoroethyl)amino)methyl)phenoxy)methyl)picolinonitrile], in data set [2], the IC50 worked out at 12 ± 1 nM. In addition, in data set [3], the “μHPLC logD” value stood at 5.2 ± 0.3 and the chromatographic logD amounted to 5.21 ± 0.31.

`Cc1c(COc2cc(OCc3cccc(C#N)c3)c(CNC3(C(=O)O)CCN(C)CC3)cc2Cl)cccc1-c1ccc2c(c1)OCCO2` [BMS-1220]: in data set [1] (setting [5]), the IC50 was 6.07 nM. On to `Cc1c(COc2cc(OCc3ccnc(C#N)c3)c(CNCCO)cc2Cl)cccc1-n1cccc1` [Compound 4n, 4-((4-Chloro-2-(((2-hydroxyethyl)amino)methyl)-5-((2-methyl-3-(1H-pyrrol-1-yl)benzyl)oxy)phenoxy)methyl)picolinonitrile], for which the “fold reduction of affinity, pyrrole at R1 vs 1,4-benzodioxanyl analogue” value (from here on “fold reduction … vs 1,4-benzodioxanyl analogue”) in data set [2] (IC50 ratio) is reported as 6.40 fold. For the same molecule, in data set [2], the IC50 was 50 ± 3 nM. Besides, in data set [3], the “μHPLC logD” value is 4.3 ± 0.2 and the chromatographic logD stood at 4.34 ± 0.18.

For `CC(=O)NCCNCc1cnc(OCc2cccc(-c3ccccc3)c2C)c(Cl)c1` [Compound 4a, N-(2-(((5-Chloro-6-((2-methyl-[1,1′-biphenyl]-3-yl)methoxy)pyridin-3-yl)methyl)amino)ethyl)acetamide], in data set [2], the IC50 is over 50000 nM. In data set [3], the “μHPLC logD” value was determined as 2.3 ± 0.1 and the chromatographic logD was 2.33 ± 0.14. `C#CCC[C@H](NCc1cc(Cl)c(OCc2cccc(-c3ccc4c(c3)OCCO4)c2C)cc1OCc1ccnc(C#N)c1)C(=O)O` [Compound 4h, (S)-2-((5-Chloro-2-((2-cyanopyridin-4-yl)methoxy)-4-((3-(2,3-dihydrobenzo [b][1,4]dioxin-6-yl)-2-methylbenzyl)oxy)benzyl)amino)hex-5-ynoic Acid]: the concentration for half-maximal inhibition (IC50) in data set [2] was 8.2 ± 1.8 nM. In data set [3], this molecule had a chromatographic logD of 3.42 ± 0.05. For the molecule `Cc1c(COc2cc(OCc3cncc(C#N)c3)c(CN[C@@H](Cc3cccnc3)C(=O)O)cc2Cl)cccc1-c1ccc2c(c1)OCCO2` [BMS-2010], in data set [1] (setting [5]), the IC50 was 50 nM. Take `Cc1c(COc2cc(OCc3cccc(C#N)c3)c(CN[C@H](CO)C(=O)O)cc2Cl)cccc1-c1ccccc1` [Compound 4b, (5-Chloro-2-((3-cyanobenzyl)oxy)-4-((2-methyl-[1,1′-biphenyl]-3-yl)methoxy)benzyl)-D-serine]: the half-maximal inhibitory concentration (IC50) in data set [2] stood at 6.7 ± 0.4 nM. In data set [3], this molecule came in with a chromatographic logD of 3.46 ± 0.05.

`Cc1cc(CN2CCCC[C@@H]2C(=O)O)c(OCc2cncc(C#N)c2)cc1OCc1cccc(-c2ccc3c(c2)OCCO3)c1C` [BMS-1288]: the IC50 in data set [1] (setting [5]) was 1.88 nM. Regarding `Cc1c(COc2cc(OCc3ccnc(C#N)c3)c(CN3CCCC[C@H]3C(=O)O)cc2Cl)cccc1-n1cccc1` [Compound 4o, (S)-1-(5-Chloro-2-((2-cyanopyridin-4-yl)methoxy)-4-((2-methyl-3-(1H-pyrrol-1-yl)benzyl)oxy)benzyl)piperidine-2-carboxylic Acid], in data set [2] (IC50 ratio), the “fold reduction … vs 1,4-benzodioxanyl analogue” value amounted to 5.99 fold. In addition, the IC50 in data set [2] amounted to 29 ± 3 nM. Besides, the chromatographic logD in data set [3] came to 3.14 ± 0.01. For `Cc1c(COc2ccc(CN[C@](C)(CO)C(=O)O)c(OCc3cccc(C#N)c3)c2Cl)cccc1-c1ccc2c(c1)OCCO2` [BMS-1239], the IC50 in data set [1] (setting [5]) is 149 nM. Take `Cc1c(COc2cc(OCc3ccnc(C#N)c3)c(CN3CCCC[C@H]3C(=O)O)cc2Cl)cccc1-c1ccc2c(c1)OCCO2` [Compound 4f, (S)-1-(5-Chloro-2-((2-cyanopyridin-4-yl)methoxy)-4-((3-(2,3-dihydrobenzo [b][1,4]dioxin-6-yl)-2-methylbenzyl)oxy)benzyl)piperidine-2-carboxylic Acid]: in data set [2], the IC50 was 4.9 ± 0.3 nM. In data set [3], this molecule displayed a chromatographic logD of 3.64 ± 0.09.

In the case of `Cc1cc(CNCCO)c(OCc2cncc(C#N)c2)cc1OCc1cccc(-c2ccc3c(c2)OCCO3)c1C#N` [BMS-1306], in data set [1] (setting [5]), the half-inhibitory concentration (IC50) was 0.92 nM. On to `COc1cc(OCc2cccc(-c3ccccc3)c2C)cc(OC)c1CN1CCCC[C@H]1C(=O)O` [PD-1/PD-L1 Inhibitor 1, reference compound], for which the concentration for a half-maximal effect (EC50) in data set [4] stood at 52300 nM. Consider `Cc1c(COc2cc(OCc3ccnc(C#N)c3)c(CN[C@H](CO)C(=O)O)cc2Cl)cccc1-n1cccc1` [Compound 4m, (5-Chloro-2-((2-cyanopyridin-4-yl)methoxy)-4-((2-methyl-3-(1H-pyrrol-1-yl)benzyl)oxy)benzyl)-D-serine], for which the “fold reduction … vs 1,4-benzodioxanyl analogue” value in data set [2] (IC50 ratio) is 1.03 fold. In data set [2], the IC50 was determined as 6 ± 1 nM. In addition, the chromatographic logD in data set [3] stood at 2.83 ± 0.04. In the case of `Cc1c(COc2cc(CNC[C@@H](O)C(=O)O)ccc2C(F)(F)F)cccc1-c1ccc2c(c1)OCCO2` [BMS-114], the IC50 in data set [1] (setting [5]) is 43 nM. For the molecule `N#Cc1cncc(COc2cc(OCc3cccc(-c4ccccc4)c3Br)c(Cl)cc2CN2CCCC[C@H]2C(=O)O)c1` [Example 8], the half-inhibitory concentration (IC50) in data set [1] (setting [6]) is 0.01 to 0.1 nM. Consider `Cc1c(COc2cc(OCc3ccnc(C#N)c3)c(CN[C@H](CO)C(=O)O)cc2Cl)cccc1-c1ccc2c(c1)OCCO2` [Compound 4c, (5-Chloro-2-((2-cyanopyridin-4-yl)methoxy)-4-((3-(2,3-dihydrobenzo[b][1,4]dioxin-6-yl)-2-methylbenzyl)oxy)benzyl)-D-serine], for which, in data set [2], the half-inhibitory concentration (IC50) is 6.1 ± 0.3 nM. Moreover, the chromatographic logD in data set [3] came out at 3.25 ± 0.03. As for `Cc1c(COc2cc(OCc3cncc(C#N)c3)c(CN[C@H](CC(N)=O)C(=O)O)cc2Cl)cccc1-c1ccc2c(c1)OCCO2` [BMS-3024], in data set [1] (setting [5]), the IC50 is 5.54 nM. Turning to `Cc1c(COc2cc(OCc3cocn3)c(CN3CCCC[C@H]3C(=O)O)cc2Cl)cccc1-c1ccc2c(c1)OCCO2` [Compound 4l, (S)-1-(5-Chloro-4-((3-(2,3-dihydrobenzo[b][1,4]dioxin-6-yl)-2-methylbenzyl)oxy)-2-(oxazol-4-ylmethoxy)benzyl)piperidine-2-carboxylic Acid], the half-inhibitory concentration (IC50) in data set [2] came to 16 ± 3 nM. In addition, the chromatographic logD in data set [3] turned out to be 3.39 ± 0.04. For `C#CCOC(=O)NCCCC[C@H](NCc1cc(Cl)c(OCc2cccc(-c3ccc4c(c3)OCCO4)c2C)cc1OCc1ccnc(C#N)c1)C(=O)O` [Compound 4i, N^2-(5-Chloro-2-((2-cyanopyridin-4-yl)methoxy)-4-((3-(2,3-dihydrobenzo[b][1,4]dioxin-6-yl)-2-methylbenzyl)oxy)benzyl)-N^6-((prop-2-yn-1-yloxy)carbonyl)-L-lysine], in that order: 3.7 ± 0.5 nM and 3.47 ± 0.06. On to `Cc1c(COc2cc(OCc3ccnc(C#N)c3)c(CN3CCCC[C@H]3C(=O)OCCF)cc2Cl)cccc1-c1ccc2c(c1)OCCO2` [Compound 5h, 2-Fluoroethyl (S)-1-(5-Chloro-2-((2-cyanopyridin-4-yl)methoxy)-4-((3-(2,3-dihydrobenzo[b][1,4]dioxin-6-yl)-2-methylbenzyl)oxy)benzyl)piperidine-2-carboxylate], for which the “fold decrease in affinity by fluoroethylation / fluoroethyl carbamylation at R3*” value in data set [2] (IC50 ratio, pairs 4f vs 5h, 4j vs 5j) came to 265 fold. In addition, the IC50 in data set [2] worked out at 1290 nM. In data set [3], this molecule displayed a chromatographic logD of over 5.75. On to `CC(=O)NCCNCc1ccc(Oc2cccc(-c3ccccc3)c2C)cc1OCc1cccc(NC(=O)OC(C)(C)C)c1` [BMS-1119], for which the IC50 in data set [1] (setting [5]) is 14200 nM. With `COc1ccccc1COc1cc(OCc2cccc(-c3ccc4c(c3)OCCO4)c2C)c(Cl)cc1CN1CCCC[C@H]1C(=O)O` [BMS-3029], the concentration for half-maximal inhibition (IC50) in data set [1] (setting [5]) was 2350 nM.
